Data published in patent US20260216135A1, “ANTIVIRAL PHARMACEUTICAL COMPOSITION AND PREPARATION METHOD THEREFOR” (priority 2023, published 2026).
Like-named read-outs stand apart in the source and are kept apart here.

Tests used:
[1] = system: 47 safety-related targets; conditions: read-out: EC50 for 47 safety-related targets (inhibition or activation)
Excerpt: For 78 tests related to 47 safe targets, the experimental methods used included: CAMP assay, calcium flux assay, hormone nuclear receptor assay, kinase binding assay, enzyme activity assay, neurotransmitter transporter assay, ion channel assay, and transporter assay.

SARS-CoV-2 Delta strain = conditions: for Viral load, brain tissue, Day 4 / Viral load, lung tissue, Day 2: intragastric BID, mean ± SD
[2] = system: SARS-CoV-2 Omicron strain (B.1.1.529); test: microbe, parasite or virus in culture; conditions: Severe acute respiratory syndrome coronavirus 2, Vero C1008, read-out: IC50 (μM), Vero E6 Omicron strain (B.1.1.529)
[3] = 200 mg/kg + ritonavir 50 mg/kg, listed as compound of formula (I)

## CC(C)(C)[C@H](NC(=O)C(F)(F)F)C(=O)N1CC2(C[C@H]1C(=O)N[C@H](C#N)C[C@@H]1CCNC1=O)SCCS2 [Compound of formula (I)]
[1]
  EC50: > 100000 nM
SARS-CoV-2 Delta strain; 50 mg/kg + ritonavir 50 mg/kg
  Viral load, brain tissue, Day 4: 2.88 ± 1.26 log10 copies/mg
  Viral load, lung tissue, Day 2: 7.66 ± 0.27 log10 copies/g
SARS-CoV-2 Delta strain; 50 mg/kg + ritonavir 50 mg/kg, listed as compound of formula (I)
  Viral load, lung tissue, Day 2: 7.66 log10 copies/g
SARS-CoV-2 Delta strain; 200 mg/kg + ritonavir 50 mg/kg
  Viral load, brain tissue, Day 4: 0.99 ± 0.42 log10 copies/mg
  Viral load, lung tissue, Day 2: 6.79 ± 0.30 log10 copies/g
SARS-CoV-2 Delta strain; [3]
  Viral load, brain tissue, Day 4: comparable to that of the uninfected normal group
  Viral load, lung tissue, Day 2: 6.79±0.30 log10 copies/g
SARS-CoV-2 Delta strain; 200 mg/kg, compared with model group
  Histopathological analysis of the lungs: significantly ameliorated lung damage
SARS-CoV-2 Delta strain; mouse, in vivo
  Body weight of mice: not significantly reduced
  Reduction of viral copy number in the lungs compared with the model group: 2.4 log 10 copies/g
  Reduction of viral titer in the lungs compared to the model group: more than 3 log 10 PFU/g
  Virus titer in the brains (plaque assay): no virus titer was detected
[2]
  IC50: 0.12 µM
